Experimental data as given in EP0343961B1, “Aryl- and heteroaryl piperazinyl carboxamides having central nervous system activity” (priority 1988, dated 1989).
Where two headings read alike, the source gives them in different places.

What was measured:
[1] = target: T1, 5-HT1A serotonin receptor (Rattus norvegicus, UniProt P19327); test: inhibition of 5-HT1A serotonin receptor binding (3H-8-OH-DPAT); set-up: species or system male Sprague Dawley rats; conditions: rat hippocampal tissue; for inhibition at 0.1 µM: at 100 nM
T1 construct: Hippocampal tissue from male Sprague Dawley rats is dissected and homogenized; from tissue; host or cells: hippocampus of male Sprague Dawley rats, membrane homogenate
T1 sequence (P19327 1-422): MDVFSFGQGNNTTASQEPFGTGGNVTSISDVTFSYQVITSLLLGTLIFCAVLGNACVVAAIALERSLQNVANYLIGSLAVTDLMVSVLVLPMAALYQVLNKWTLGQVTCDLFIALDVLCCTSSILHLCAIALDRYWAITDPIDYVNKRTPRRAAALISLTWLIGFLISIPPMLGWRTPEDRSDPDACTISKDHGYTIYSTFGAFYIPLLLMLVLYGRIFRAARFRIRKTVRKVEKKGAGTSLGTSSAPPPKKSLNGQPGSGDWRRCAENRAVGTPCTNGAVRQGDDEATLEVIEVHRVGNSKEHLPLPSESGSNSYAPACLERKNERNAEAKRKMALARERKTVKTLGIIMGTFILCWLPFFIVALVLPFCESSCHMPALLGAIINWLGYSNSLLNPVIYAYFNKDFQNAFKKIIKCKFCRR
Experimental: The assay is carried out as follows: Hippocampal tissue from male Sprague Dawley rats is dissected and homogenized on ice in 40 volumes of buffer A (50 mM Tris HCl, pH = 7.7) using a Polytron homogenizer at setting 5 for 3 x 15 second bursts. The homogenate is then centrifuged at 20,000 rpm (RC5-B; 50,000 g) and the supernatant discarded. The pellet is resuspended in 40 volumes of the same buffer and incubated at 37°C for 10 minutes to aid in the removal of endogenous serotonin. The homogenate is then centrifuged (as above) and the supernatant discarded. The pellet is then resuspended in 100 volumes of buffer B (50 mM Tris HCl, pH = 7.7 containing 0.1% ascorbate, 10 µM pargyline and 4 mM CaCl₂) and sonicated. An aliquot is taken for protein determination by the Lowry method and the remainder stored frozen at -70°C until used.
The homogenate (50 µL; 0.4-0.6 mg protein/sample) is incubated with 100 µL (1.5-1.8 nM) ³H-8-hydroxy-2-(di-n-propylamino)tetraline (³H-8-OH-DPAT) in a final volume of 2 mL of buffer for 10 minutes at 37°C. At the end of the incubation, 3 mL of cold buffer A are added to each tube, and the contents rapidly filtered through Whatman GF/B glass filters. The filters are then rapidly washed 2 times with 3 mL of the same buffer, placed in scintillation vials, and shaken for 15 minutes with 10 mL of Hydrofluor (National Diagnostics) scintillation cocktail. The vials are then counted in a Packard 460 CD scintillation counter.
Specific binding is defined as total binding less binding in the presence of excess unlabeled serotonin (1 µM). Binding in the presence of various concentrations of test drug is expressed as a percent of specific binding when no drug is present. […] Linear regression analysis then yields a straight line with 95% confidence limits from which an IC₅₀ can be inversely predicted.

5-HT₂ = target: T2, 5-HT₂ (Rattus norvegicus, UniProt P14842); test: 5-HT2 inhibition of 3H-spiroperidol binding, brain cortex homogenate; conditions: read-out: % Inhibition at 1 µM 5-HT₂
T2 construct: employing rat brain cortex homogenate as the receptor tissue; from tissue; host or cells: rat brain cortex, membrane homogenate

M1 muscarinic receptor = target: T3, M1 muscarinic receptor (Rattus norvegicus, UniProt P08482); test: M1 muscarinic receptor binding ([3H] pirenzipine, hippocampus tissue)
T3 construct: from tissue; host or cells: rat hippocampus, membrane fraction
T3 sequence (P08482 1-460): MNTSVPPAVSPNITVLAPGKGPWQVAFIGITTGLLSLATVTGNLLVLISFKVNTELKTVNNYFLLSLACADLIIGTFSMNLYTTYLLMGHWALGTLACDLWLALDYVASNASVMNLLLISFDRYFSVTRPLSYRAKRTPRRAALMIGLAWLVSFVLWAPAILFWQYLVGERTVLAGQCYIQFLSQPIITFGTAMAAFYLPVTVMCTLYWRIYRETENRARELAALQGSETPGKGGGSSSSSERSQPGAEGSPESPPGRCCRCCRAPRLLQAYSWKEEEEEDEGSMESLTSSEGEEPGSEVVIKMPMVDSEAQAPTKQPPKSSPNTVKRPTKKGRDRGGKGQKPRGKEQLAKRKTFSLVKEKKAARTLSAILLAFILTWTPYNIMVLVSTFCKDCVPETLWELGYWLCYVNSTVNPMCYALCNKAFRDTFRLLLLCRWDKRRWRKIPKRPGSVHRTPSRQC
Experimental: The M1 muscarinic receptor binding properties of the compounds of this invention were established as follows:
The resulting pellet is resuspended in the original volume of 0.32 M aqueous sucrose. The sample is then diluted 1:2 in 10 mM Na₂HPO₄/KH₂PO₄ buffer (pH = 7.4). A 100 µL sample of the buffered tissue suspension is incubated at 25°C for 60 minutes in the dark with 10 µL of test compound or vehicle for control and [³H] pirenzipine (0.5 nM, 0.04 µCi) q.s. 1 milliliter with the buffer solution. Atropine sulfate (2 µM) is added to half the samples being processed. Binding is terminated by vacuum filtration onto Whatman GF/B filters which are washed three times with the buffer solution (3 ml/wash, 4°C). […] Specific [³H] PZ binding is defined as total binding minus binding in the presence of 2 µM atropine sulfate.

M2 receptor = target: T4, M2 receptor (Rattus norvegicus, UniProt P10980); test: M2 receptor binding ([3H] quinuclidinyl benzilate, cerebellum tissue); conditions: [3H] quinuclidinyl benzilate 0.23 nM, read-out: IC₅₀for M₂
T4 sequence (P10980 1-466): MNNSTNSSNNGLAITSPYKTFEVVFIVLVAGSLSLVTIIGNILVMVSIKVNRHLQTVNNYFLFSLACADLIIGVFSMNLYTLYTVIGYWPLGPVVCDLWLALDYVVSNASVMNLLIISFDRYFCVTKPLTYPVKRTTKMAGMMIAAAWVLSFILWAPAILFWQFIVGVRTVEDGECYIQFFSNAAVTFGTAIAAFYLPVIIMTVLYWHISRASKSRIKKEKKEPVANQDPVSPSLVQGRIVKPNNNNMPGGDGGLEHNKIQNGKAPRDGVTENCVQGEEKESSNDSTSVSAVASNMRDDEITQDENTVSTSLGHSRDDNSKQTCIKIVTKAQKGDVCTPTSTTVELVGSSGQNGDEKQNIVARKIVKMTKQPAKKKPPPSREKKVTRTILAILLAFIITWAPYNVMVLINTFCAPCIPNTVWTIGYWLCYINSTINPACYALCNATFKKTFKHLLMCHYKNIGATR

[2] = at 1 µM, rat brain cortex homogenate, 3H-spiroperidol

T2 sequence (P14842 whole entry): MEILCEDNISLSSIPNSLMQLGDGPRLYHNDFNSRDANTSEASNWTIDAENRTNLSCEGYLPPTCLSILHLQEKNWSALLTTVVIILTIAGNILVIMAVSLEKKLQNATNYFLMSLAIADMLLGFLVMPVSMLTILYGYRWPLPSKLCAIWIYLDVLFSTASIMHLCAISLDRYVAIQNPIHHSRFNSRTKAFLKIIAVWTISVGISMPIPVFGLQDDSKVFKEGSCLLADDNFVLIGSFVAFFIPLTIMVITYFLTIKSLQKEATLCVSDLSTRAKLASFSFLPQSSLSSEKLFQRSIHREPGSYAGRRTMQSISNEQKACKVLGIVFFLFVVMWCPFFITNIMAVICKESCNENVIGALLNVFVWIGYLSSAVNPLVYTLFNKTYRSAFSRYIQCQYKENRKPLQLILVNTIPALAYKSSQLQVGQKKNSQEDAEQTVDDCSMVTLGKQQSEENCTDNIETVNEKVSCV

Compound | inhibition at 1 µM [1] | further results
O=C1CC2(CCCC2)CC(=O)N1CCCCN1CCN(c2ncccn2)CC1 [Buspirone, reference compound] | 94% | –
COc1ccccc1N1CCN(CCCNC(=O)C23CC4CC(CC(C4)C2)C3)CC1 [Example 1, N-[3-[4-(2-Methoxyphenyl)-1-piperazinyl]propyl]tricyclo[3.3.1.1^3,7]decan-1-carboxamide] | 98% | inhibition at 1 µM (5-HT₂; [2]): 92%; Ki [1]: 1 nM
O=C(NCCN1CCN(c2ncccn2)CC1)C12CC3CC(CC(C3)C1)C2 [Example 2, N-[2-[4-(2-Pyrimidyl)-1-piperazinyl]ethyl]tricyclo[3.3.1.1^3,7]decane-1-carboxamide] | 97% | inhibition at 1 µM (5-HT₂; [2]): 91%; Ki [1]: 1 nM
COc1ccccc1N1CCN(CCNC(=O)C23CC4CC(CC(C4)C2)C3)CC1 [Example 3, N-[2-[4-(2-Methoxyphenyl)-1-piperazinyl]ethyl]tricyclo[3.3.1.1^3,7]decane-1-carboxamide] | 97% | –
O=C(NCCN1CCN(c2cccc(Cl)c2)CC1)C12CC3CC(CC(C3)C1)C2 [Example 4, N-[2-[4-(3-Chlorophenyl)-1-piperazinyl]ethyl]tricyclo[3.3.1.1^3,7]decane-1-carboxamide] | 100% | –
O=C(NCCN1CCN(c2ncccn2)CC1)c1cc2ccccc2o1 [Example 5, N-[2-[4-(2-Pyrimidyl)-1-piperazinyl]ethyl]benzofurane-2-carboxamide] | 83% | –
COc1ccccc1N1CCN(CCCNC(=O)c2cc3ccccc3o2)CC1 [Example 6, N-[3-[4-(2-Methoxyphenyl)-1-piperazinyl]propyl]benzofurane-2 carboxamide] | 94% | –
COc1ccccc1N1CCN(CCCNC(=O)c2cc3ccccc3[nH]2)CC1 [Example 7, N-[3-[4-(2-Methoxyphenyl)-1-piperazinyl]propyl]-(1H)-indole-2 carboxamide] | 91% | –
O=C(NCCCN1CCN(c2cccc(Cl)c2)CC1)C12CC3CC(CC(C3)C1)C2 [Example 8, N-[3-[4-(3-Chlorophenyl)-1-piperazinyl]propyl]tricyclo[3.3.1.1^3,7]decane-1-carboxamide] | 94% | –
CC12CC3CC(C1)CC(CC(=O)NCCN1CCN(c4ncccn4)CC1)(C3)C2 [Example 9, N-[2-[4-(2-Pyrimidyl)-1-piperazinyl]ethyl]-3-methyltricyclo[3.3.1.1^3,7]decane-1-acetic Acid Carboxamide] | 93% | –
O=C(NCCCN1CCN(c2ncccn2)CC1)C12CC3CC(CC(C3)C1)C2 [Example 10, N-[3-[4-(2-Pyrimidyl)-1-piperazinyl]propyl]tricyclo[3.3.1.1^3,7]decane-1-carboxamide] | 82% | –
CC12CC3CC(C1)CC(CC(=O)NCCN1CCN(c4cccc(Cl)c4)CC1)(C3)C2 [Example 11, N-[2-[4-(3-Chlorophenyl)-1-piperazinyl]ethyl]-3-methyltricyclo[3.3.1.1^3,7]decane-1-acetic Acid Carboxamide] | 91% | –
COc1ccccc1N1CCN(CCNC(=O)CC23CC4CC(CC(C)(C4)C2)C3)CC1 [Example 12, N-[2-[4-(2-Methoxyphenyl)-1-piperazinyl]ethyl]-3-methyltricyclo[3.3.1.1^3,7]decane-1-acetic Acid Carboxamide] | 98% | –
O=C(NCCN1CCN(c2ncccn2)CC1)C12CC3CC(CC1C3)C2 [Example 13, N-[2-[4-(2-Pyrimidyl)-1-piperazinyl]ethyl]hexahydro-2,5-methanopentalene-3a(1H)-carboxamide] | 97% | –
COc1ccccc1N1CCN(CCNC(=O)C23CC4CC(CC2C4)C3)CC1 [Example 14, N-[2-[4-(2-Methoxyphenyl)-1-piperazinyl]ethyl]hexahydro-2,5-methanopentalene-3a(1H)-carboxamide] | – | inhibition at 0.1 µM [1]: 100%
O=C(NCCN1CCN(c2cccc(Cl)c2)CC1)C12CC3CC(CC1C3)C2 [Example 15, N-[2-[4-(3-Chlorophenyl)-1-piperazinyl]ethyl]hexahydro-2,5-methanopentalene-3a(1H)-carboxamide] | – | IC50 (M1 muscarinic receptor; rat hippocampus, [3H] pirenzipine 0.5 nM, read-out: IC₅₀for M₁): 240 nM; M₂/M₁ Ratio (M1 muscarinic receptor; ratio of IC50 for M2 to IC50 for M1): 46; inhibition at 0.1 µM [1]: 99%; IC50 (M2 receptor): 11 µM
O=C(NCCCN1CCN(c2ncccn2)CC1)C12CC3CC(CC1C3)C2 [Example 17, N-[3-[4-(2-Pyrimidyl)-1-piperazinyl]propyl]hexahydro-2,5-methanopentalene-3a(1H)-carboxamide] | 88% | Ki [1]: 67 nM
COc1ccccc1N1CCN(CCCNC(=O)C23CC4CC(CC2C4)C3)CC1 [Example 18, N-[3-[4-(2-Methoxyphenyl)-1-piperazinyl]propyl]hexahydro-2,5-methanopentalene-3a(1H)-carboxamide] | 99% | –
O=C(NCCCN1CCN(c2cccc(Cl)c2)CC1)C12CC3CC(CC1C3)C2 [Example 19, N-[3-[4-(3-Chlorophenyl)-1-piperazinyl]propyl]hexahydro-2,5-methanopentalene-3a(1H)-carboxamide] | – | inhibition at 0.1 µM [1]: 75%; Ki [1]: 20 nM
CC1(C)CC(=O)N(CCCCN2CCN(c3ncccn3)CC2)C(=O)C1 [Gepirone, 4,4-dimethyl-1-[4-[4-(2-pyrimidinyl)-1-piperazinyl]-butyl]-2,6-piperidinedione, reference compound] | – | inhibition at 1 µM (5-HT₂): 20%
